Measurements from article PMC2248166, “Quantitative peptide binding motifs for 19 human and mouse MHC class I molecules derived using positional scanning combinatorial peptide libraries” (Immunome Research, 2008).

Experiments:
HLA A*3001 = HLA A*3001 (Homo sapiens, UniProt P04439, D140H/D185E/E176W/F33S/G80R/H175R/K168Q/R138E/R41S); experiment: biochemical; assay type: binding
HLA A*3201 = HLA A*3201 (Homo sapiens, UniProt P04439, A270S/D101S/D185E/E176V/E277Q/F133L/G103R/G107R/G231S/H175R/I121M/I218V/I322F/K168Q/L105A/L300P/L318F/M331R/P208A/P217A/Q94H/R106L/R138Q/S129P/T104I/T323A/T345S/V100E/V321M/V358M); experiment: biochemical; assay type: binding
HLA A*6802 = HLA A*6802 (Homo sapiens, UniProt P04439, A269V/D140Y/D185E/E176V/E277Q/E87N/F33Y/G231S/I121R/I166T/I218V/L180W/L300P/L318F/N151K/P208A/P217A/Q86R/R138H/R169H/S129P/T345S/V36M); assay type: binding
HLA B*0702 = HLA B*0702 (Homo sapiens, UniProt P01889); assay type: binding; details: positional scanning combinatorial 9-mer library; normalized to 1.0 for the best residue at each position
HLA B*0801 = HLA B*0801 (Homo sapiens, UniProt P01889, A93T/A95T/D138N/E176V/E187T/K202T/Q94N/R180D/S35A/V36M/Y33D/Y91F); experiment: biochemical; assay type: binding
HLA B*1501 = HLA B*1501 (Homo sapiens, UniProt P01889, A329T/A93T/A95T/C349S/D201E/D98Y/E187L/E204Q/E69M/E70A/K202T/N87E/Q94N/R155S/R180W/S121R/S35A/S48A/V306I/V36M/Y140S/Y91S); experiment: biochemical; assay type: binding
HLA B*1503 = HLA B*1503 (Homo sapiens, UniProt P01889, A329T/A93T/A95T/C349S/D201E/D98Y/E187L/E204Q/K202T/N87E/Q94N/R155S/R180L/S121R/S35A/V306I/V36M/Y140S/Y91S); experiment: biochemical; assay type: binding
HLA B*2705 = HLA B*2705 (Homo sapiens, UniProt P01889, D138H/D201E/E176V/E204Q/G107R/H137Y/K202T/N104T/N87E/Q56L/Q94K/R106L/R155S/R180L/S101D/S121N/S48T/Y140D/Y33H/Y91C); assay type: binding; details: positional scanning combinatorial 9-mer library; normalized to 1.0 for the best residue at each position
HLA B*3501 = HLA B*3501 (Homo sapiens, UniProt P01889, A329T/A93T/A95T/C349S/D201E/D98Y/E176V/E187L/E204Q/E69T/I218V/K202T/L119I/Q94N/R155S/R180L/S121R/S35A/S48A/T118I/V127L/V306I/V36M/Y140S/Y91F); assay type: binding
HLA B*5101 = HLA B*5101 (Homo sapiens, UniProt P01889, A329T/A93T/A95T/C349S/D138N/D201E/D98Y/E187L/E204Q/E69T/G107R/I218V/K202T/L105A/L119W/N104I/Q94N/R106L/R155S/R180L/S101N/S121T/S35A/S48A/V306I/V36M/Y195H/Y91F); assay type: binding
HLA B*5301 = HLA B*5301 (Homo sapiens, UniProt P01889, A329T/A93T/A95T/C349S/D201E/D98Y/E176V/E187L/E204Q/E69T/G107R/I218V/K202T/L105A/L119I/N104I/Q94N/R106L/R155S/R180L/S101N/S121R/S35A/S48A/T118I/V127L/V306I/V36M/Y140S/Y91F); assay type: binding
HLA B*5401 = HLA B*5401 (Homo sapiens, UniProt P01889, A329T/C349S/D138N/D201E/E176V/E187T/E204Q/E69G/I76V/K202T/L119W/R155S/R180L/S121T/S35A/S48A/V127L/V306I/V36M/Y140L); assay type: binding
HLA B*5801 = HLA B*5801 (Homo sapiens, UniProt P01889, A329T/C349S/D201E/D98Y/E176V/E187L/E204Q/E69T/G107R/I218V/I90N/K202T/L105A/L119I/N104I/N87E/Q89R/Q94S/R106L/R155S/R180L/R86G/S101N/S121R/S35A/S48A/T118I/V127L/V306I/V36M/Y140S/Y91M); assay type: binding
HLA B*5802 = HLA B*5802 (Homo sapiens, UniProt P01889, A329T/C349S/D201E/D98Y/E176V/E187L/E204Q/E69T/G107R/I218V/I90N/K202T/L105A/N104I/N87E/Q89R/Q94S/R106L/R155S/R180L/R86G/S101N/S121W/S35A/S48A/V127L/V306I/V36M/Y140S/Y91M); assay type: binding
H-2 D^b = H-2 D^b (Mus musculus, UniProt P01899); assay type: binding
Sequence of H-2 D^b (P01887 21-119): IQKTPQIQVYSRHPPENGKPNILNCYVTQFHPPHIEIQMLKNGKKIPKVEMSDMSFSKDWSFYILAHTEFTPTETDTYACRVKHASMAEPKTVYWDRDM
Sequence of H-2 D^b (P01899 25-362): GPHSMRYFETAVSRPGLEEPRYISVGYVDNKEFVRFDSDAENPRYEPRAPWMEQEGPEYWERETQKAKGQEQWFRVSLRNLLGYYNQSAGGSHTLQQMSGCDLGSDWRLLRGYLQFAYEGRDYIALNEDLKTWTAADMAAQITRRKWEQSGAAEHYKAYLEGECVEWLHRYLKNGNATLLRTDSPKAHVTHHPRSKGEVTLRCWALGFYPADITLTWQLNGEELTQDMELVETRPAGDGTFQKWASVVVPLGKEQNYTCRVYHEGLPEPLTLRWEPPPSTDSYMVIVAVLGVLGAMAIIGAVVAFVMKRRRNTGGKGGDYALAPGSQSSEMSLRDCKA

H-2 D^d = H-2 D^d (Mus musculus, UniProt P01900); assay type: binding
Sequence of H-2 D^d (P01900 whole entry, looked up): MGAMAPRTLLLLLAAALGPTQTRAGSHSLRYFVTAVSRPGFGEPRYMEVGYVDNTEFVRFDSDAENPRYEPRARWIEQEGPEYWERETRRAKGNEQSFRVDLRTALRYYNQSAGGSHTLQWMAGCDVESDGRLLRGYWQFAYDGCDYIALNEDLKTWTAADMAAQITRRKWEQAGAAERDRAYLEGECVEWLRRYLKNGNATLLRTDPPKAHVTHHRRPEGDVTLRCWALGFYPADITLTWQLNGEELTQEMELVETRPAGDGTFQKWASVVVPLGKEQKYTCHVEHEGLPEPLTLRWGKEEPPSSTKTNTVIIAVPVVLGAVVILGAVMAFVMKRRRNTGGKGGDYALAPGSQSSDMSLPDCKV

H-2 K^k = H-2 K^k (Mus musculus, UniProt P04223); assay type: binding
Sequence of H-2 K^k (P01887 21-119): as the sequence (P01887 21-119) above
Sequence of H-2 K^k (P04223 22-369): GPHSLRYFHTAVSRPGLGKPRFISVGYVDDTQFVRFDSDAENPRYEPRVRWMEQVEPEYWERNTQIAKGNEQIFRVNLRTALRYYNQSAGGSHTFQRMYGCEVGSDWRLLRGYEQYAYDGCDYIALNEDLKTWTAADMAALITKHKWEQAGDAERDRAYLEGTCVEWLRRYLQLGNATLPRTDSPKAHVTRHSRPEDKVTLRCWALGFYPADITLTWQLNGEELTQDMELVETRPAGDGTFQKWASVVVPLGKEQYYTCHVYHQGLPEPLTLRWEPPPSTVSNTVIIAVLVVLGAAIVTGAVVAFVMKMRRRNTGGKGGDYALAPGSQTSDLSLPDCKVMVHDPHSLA

HLA A*0201 = HLA A*0201 (Homo sapiens, UniProt P04439, D140Y/D185E/D98H/E176V/E277Q/G131W/G231S/I119V/I121R/I166T/I218V/L300P/L318F/N151K/N90K/P208A/P217A/Q86G/Q94H/R138H/R169H/T345S); details: positional scanning combinatorial 9-mer library; normalized to 1.0 for the best residue at each position

Row | Sequence | Normalized average relative binding affinity (ARB), HLA A*3001 (HLA A*3001) | Normalized average relative binding affinity (ARB), HLA A*3201 (HLA A*3201) | Normalized average relative binding affinity (ARB), HLA A*6802 (HLA A*6802) | Normalized average relative binding affinity (ARB), HLA B*0702 (HLA B*0702) | Normalized average relative binding affinity (ARB), HLA B*0801 (HLA B*0801) | Normalized average relative binding affinity (ARB), HLA B*1501 (HLA B*1501) | Normalized average relative binding affinity (ARB), HLA B*1503 (HLA B*1503) | Normalized average relative binding affinity (ARB), HLA B*2705 (HLA B*2705) | Normalized average relative binding affinity (ARB), HLA B*3501 (HLA B*3501) | Normalized average relative binding affinity (ARB), HLA B*5101 (HLA B*5101) | Normalized average relative binding affinity (ARB), HLA B*5301 (HLA B*5301) | Normalized average relative binding affinity (ARB), HLA B*5401 (HLA B*5401) | Normalized average relative binding affinity (ARB), HLA B*5801 (HLA B*5801) | Normalized average relative binding affinity (ARB), HLA B*5802 (HLA B*5802) | Normalized average relative binding affinity (ARB), H-2 Db (H-2 D^b) | Normalized average relative binding affinity (ARB), H-2 Dd (H-2 D^d) | Normalized average relative binding affinity (ARB), H-2 Kk (H-2 K^k) | Normalized average relative binding affinity (ARB), HLA A*0201 (HLA A*0201)
1 | XVXXXXXXX [3064.0038] | 1.0 | 0.23 | 1.0 | 0.086 | 0.17 | 0.39 | 0.017 | 0.0016 | 0.062 | 0.10 | 0.10 | 0.024 | 0.14 | 0.12 | 0.20 | 0.016 | 0.0062 | 0.098
2 | XWXXXXXXX [3064.0039] | 0.26 | 0.034 | 0.022 | 0.0052 | 0.024 | 0.027 | 0.0038 | 0.0022 | 0.015 | 0.050 | 0.0054 | 0.0040 | 0.0033 | 0.098 | 0.10 | 0.061 | 0.0069 | 0.0024
3 | XXAXXXXXX [3064.0041] | 0.0077 | 0.24 | 0.0051 | 0.0097 | 0.12 | 0.23 | 0.29 | 0.21 | 0.19 | 0.47 | 0.0065 | 0.00077 | 0.32 | 0.047 | 0.022 | 0.0028 | 0.0061 | 0.43
4 | XXCXXXXXX [3064.0042] | 0.0048 | 0.32 | 0.071 | 0.047 | 0.020 | 0.35 | 0.048 | 0.14 | 0.074 | 0.24 | 0.0065 | 0.015 | 0.11 | 0.37 | 0.098 | 0.0028 | 0.15 | 0.22
